The source of these data is patent publication US10407428B2, “Spiro-isoquinoline-1,4′-piperidine compounds having multimodal activity against pain” (ESTEVE PHARMACEUTICALS, S.A., priority 2014, dated 2019).

One experiment deals with human σ1 receptor and human μ-opioid receptor. The experiment in a line: Human σ1 receptor radioligand assay and human μ-opioid receptor radioligand assay (μ and σ1 dual binding). The arrangement: key to μ and σ1 dual binding: +: Both Ki-μ and Ki-σ1>=500 nM; ++: One Ki<500 nM while the other Ki is >=500 nM; +++: Both Ki-μ and Ki-σ1<500 nM; ++++: Both Ki-μ and Ki-σ1<100 nM.
Conditions: not given
A word on the Ki: it is a measure of affinity in units of concentration, obtained from inhibition or displacement. `CN1CCc2ccccc2C12CCN(Cc1ccccn1)CC2` [Example 82, 2-methyl-1′-(pyridin-2-ylmethyl)-3,4-dihydro-2H-spiro[isoquinoline-1,4′-piperidine]] displayed a Ki below 500 nM.

`COCCN1CCc2ccccc2C12CCN(CCc1ccccc1)CC2` [Example 122, 2-(2-Methoxyethyl)-1′-phenethyl-3,4-dihydro-2H-spiro[isoquinoline-1,4′-piperidine]]: the Ki is below 500 nM. Same read-out and setting: the result for `FC(F)(F)CN1CCc2ccccc2C12CCN(CCc1ccccc1)CC2` [Example 133, 1′-Phenethyl-2-(2,2,2-trifluoroethyl)-3,4-dihydro-2H-spiro[isoquinoline-1,4′-piperidine]] reads below 100 nM. The same measure, in the same setting: the result for `CC(C)N(C)C(=O)CN1CCC2(CC1)c1ccccc1CCN2C` [Example 103, N-isopropyl-N-methyl-2-(2-methyl-3,4-dihydro-2H-spiro[isoquinoline-1,4′-piperidine]-1′-yl)acetamide] reads below 500 nM; that for `CS(=O)(=O)N1CCc2ccccc2C12CCN(CCc1ccccc1)CC2` [Example 53, 2-(Methylsulfonyl)-1′-phenethyl-3,4-dihydro-2H-spiro[isoquinoline-1,4′-piperidine]], below 100 nM; that for `FC(F)(F)CN1CCc2ccccc2C12CCN(CCc1ccncc1)CC2` [Example 136, 1′-(2-(pyridin-4-yl)ethyl)-2-(2,2,2-trifluoroethyl)-3,4-dihydro-2H-spiro[isoquinoline-1,4′-piperidine]], below 500 nM. Molecule `CCN(C(=O)CN1CCC2(CC1)c1ccccc1CCN2CC)C(C)C` [Example 144, N-ethyl-2-(2-ethyl-3,4-dihydro-2H-spiro[isoquinoline-1,4′-piperidine]-1′-yl)-N-isopropylacetamide] came in with a Ki below 500 nM. On the same count and under the same terms, the result for `OCCN1CCc2ccccc2C12CCN(CCc1cncc(F)c1)CC2` [Example 127, 2-(1′-(2-(5-fluoropyridin-3-yl)ethyl)-3,4-dihydro-2H-spiro[isoquinoline-1,4′-piperidin]-2-yl)etanol] reads below 500 nM. As for `CC(=O)N1CCc2ccccc2C12CCN(CC(C)C)CC2` [Example 12, 1-(1′-isobutyl-3,4-dihydro-2H-spiro[isoquinoline-1,4′-piperidine]-2-yl)ethanone], the “μ and σ1 dual binding” value is on record as “++”. In turn, `CCN(CC1CC1)C(=O)CN1CCC2(CC1)c1ccccc1CCN2C` [Example 101, N-(cyclopropylmethyl)-N-ethyl-2-(2-methyl-3,4-dihydro-2H-spiro[isoquinoline-1,4′-piperidine]-1′-yl)acetamide] displayed a Ki below 500 nM. As for `CN1CCc2ccccc2C12CCN(CC1CCOCC1)CC2` [Example 67, 2-methyl-1′-((tetrahydro-2H-pyran-4-yl)methyl)-3,4-dihydro-2H-spiro[isoquinoline-1,4′-piperidine]], the “μ and σ1 dual binding” value is “++”. As for `CN1CCc2ccccc2C12CCN(CC(O)c1ccncc1F)CC2` (stereo not drawn) [Example 113, 1-(3-fluoropyridin-4-yl)-2-(2-methyl-3,4-dihydro-2H-spiro[isoquinoline-1,4′-piperidine]-1′-yl)ethanol], the Ki is below 500 nM. For the molecule `OCCN1CCc2ccccc2C12CCN(CCc1ccncc1)CC2` [Example 129, 2-(1′-(2-(pyridin-4-yl)ethyl)-3,4-dihydro-2H-spiro[isoquinoline-1,4′-piperidine]-2-yl)ethanol], the “μ and σ1 dual binding” value is “++”. Molecule `CN1CCc2ccccc2C12CCN(CCN1CCOCC1)CC2` [Example 65, 4-(2-(2-Methyl-3,4-dihydro-2H-spiro[isoquinoline-1,4′-piperidine]-1′-yl)ethyl)morpholine] gave an inhibitory constant (Ki) below 500 nM.

With `CN1CCc2ccccc2C12CCN(C[C@H](O)c1ccncc1F)CC2` [Example 142, (R)-1-(3-fluoropyridin-4-yl)-2-(2-methyl-3,4-dihydro-2H-spiro[isoquinoline-1,4′-piperidine]-1′-yl)ethanol], the inhibitory constant (Ki) is below 500 nM. Still for that read-out and setting: to `CCN1CCc2ccccc2C12CCN(CC(=O)N1CCC(F)(F)CC1)CC2` [Example 145, 1-(4,4-difluoropiperidin-1-yl)-2-(2-ethyl-3,4-dihydro-2H-spiro[isoquinoline-1,4′-piperidine]-1′-yl)ethanone] belongs below 500 nM.

The same experiment, now with this note: combined class for Ki-μ ([3H]-DAMGO, CHO-K1 membranes) and Ki-σ1 ([3H](+)-pentazocine, HEK-293 membranes).
With `CN1CCc2ccccc2C12CCN(CCc1cccc([N+](=O)[O-])c1)CC2` [Example 85, 2-methyl-1′-(3-nitrophenethyl)-3,4-dihydro-2H-spiro[isoquinoline-1,4′-piperidine]], the Ki was at least 500 nM. As to `CN1CCc2ccccc2C12CCN(CCNCCO)CC2` [Example 160, 2-(2-(2-Methyl-3,4-dihydro-2H-spiro[isoquinoline-1,4′-piperidine]-1′-yl)ethylamino)ethanol], the Ki is at least 500 nM.
